{"source": "PubChem BioAssay AID212", "about": "(DTP/NCI, 2004)", "test_system": "BDF1 mice, colon carcinoma 38 sc, T/C %", "assay": "NCI In Vivo Anticancer Drug Screen. Data for tumor model Colon Carcinoma 38 (subcutaneous) in B6D2F1 (BDF1) mice", "details": "endpoint: median tumor weight (est.), higher = larger tumour", "in_short": "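Transplantable tumor in mice; compound-treated vs vehicle-dosed controls. Measured survival or tumor size; value = T ÷ C.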", "key": {"[1]": {"details": "dose: 4.0 mg/kg/injection, schedule: Q07DX002 (ip), vehicle: saline with Tween-80"}, "[2]": {"details": "dose: 50.0 mg/kg/injection, schedule: Q07DX002 (ip), vehicle: saline with Tween-80"}, "[3]": {"details": "dose: 100.0 mg/kg/injection, schedule: Q07DX002 (ip), vehicle: saline with Tween-80"}, "[4]": {"details": "dose: 200.0 mg/kg/injection, schedule: Q07DX002 (ip), vehicle: saline with Tween-80"}, "[5]": {"details": "dose: 400.0 mg/kg/injection, schedule: Q07DX002 (ip), vehicle: saline with Tween-80"}, "[6]": {"details": "dose: 12.5 mg/kg/injection, schedule: Q07DX002 (ip), vehicle: saline with Tween-80"}, "[7]": {"details": "dose: 25.0 mg/kg/injection, schedule: Q07DX002 (ip), vehicle: saline with Tween-80"}}, "note": "Several values for one entry are separate records, joined by “and”; a condition that tells them apart may be missing. Identical values can stand only once. Inconclusive results are not listed."}
{"molecule": "O=C1CCC(=O)N1CO", "values": [{"measurement": "T/C", "setting": "dose: 50.0 mg/kg/injection, schedule: Q07DX002 (ip), vehicle: saline", "result": "112 % of control and 98 % of control"}, {"measurement": "T/C", "setting": "dose: 100.0 mg/kg/injection, schedule: Q07DX002 (ip), vehicle: saline", "result": "99 % of control and 100 % of control"}, {"measurement": "T/C", "setting": "dose: 200.0 mg/kg/injection, schedule: Q07DX002 (ip), vehicle: saline", "result": "76 % of control and 91 % of control"}, {"measurement": "T/C", "setting": "dose: 400.0 mg/kg/injection, schedule: Q07DX002 (ip), vehicle: saline", "result": "36 % of control and 58 % of control"}]}
{"molecule": "COC1=C2C[C@@H](C)C[C@@H](OC)[C@@H](O)[C@H](C)/C=C(\\C)[C@@H](OC(N)=O)[C@H](OC)/C=C\\C=C(/C)C(=O)NC(=CC1=O)C2=O", "values": [{"measurement": "T/C", "setting": "dose: 0.25 mg/kg/injection, schedule: Q07DX002 (ip), vehicle: saline with Tween-80", "result": "92 % of control and 100 % of control"}, {"measurement": "T/C", "setting": "dose: 0.5 mg/kg/injection, schedule: Q07DX002 (ip), vehicle: saline with Tween-80", "result": "86 % of control"}, {"measurement": "T/C", "setting": "dose: 1.0 mg/kg/injection, schedule: Q07DX002 (ip), vehicle: saline with Tween-80", "result": "108 % of control"}, {"measurement": "T/C", "setting": "dose: 2.0 mg/kg/injection, schedule: Q07DX002 (ip), vehicle: saline with Tween-80", "result": "94 % of control"}, {"measurement": "T/C", "setting": "[1]", "result": "98 % of control"}, {"measurement": "T/C", "setting": "dose: 8.0 mg/kg/injection, schedule: Q07DX002 (ip), vehicle: saline with Tween-80", "result": "92 % of control and 94 % of control"}]}
{"molecule": "CC(=S)NC(O)C(=O)c1ccccc1", "note": "(stereo unspecified)", "values": [{"measurement": "T/C", "setting": "[2]", "result": "71 % of control and 82 % of control"}, {"measurement": "T/C", "setting": "[3]", "result": "77 % of control and 99 % of control"}, {"measurement": "T/C", "setting": "[4]", "result": "98 % of control and 103 % of control"}, {"measurement": "T/C", "setting": "[5]", "result": "115 % of control"}]}
{"molecule": "O=NN(CCCl)C(=O)NC1[C@H](O)CCC[C@@H]1O", "note": "(stereo partly specified)", "values": [{"measurement": "T/C", "setting": "dose: 1.25 mg/kg/injection, schedule: Q07DX002 (ip), vehicle: saline", "result": "68 % of control"}, {"measurement": "T/C", "setting": "dose: 2.5 mg/kg/injection, schedule: Q07DX002 (ip), vehicle: saline", "result": "53 % of control and 76 % of control"}, {"measurement": "T/C", "setting": "dose: 10.0 mg/kg/injection, schedule: Q07DX002 (ip), vehicle: saline", "result": "9 % of control and 26 % of control"}]}
{"molecule": "CC(=O)OCC1C(=O)OCC1C(=O)N1Cc2cc3ccccc3nc2C1", "note": "(stereo unspecified)", "values": [{"measurement": "T/C", "setting": "[1]", "result": "88 % of control"}, {"measurement": "T/C", "setting": "dose: 8.0 mg/kg/injection, schedule: Q07DX003 (ip), vehicle: saline with Tween-80", "result": "230 % of control"}, {"measurement": "T/C", "setting": "dose: 16.0 mg/kg/injection, schedule: Q07DX003 (ip), vehicle: saline with Tween-80", "result": "191 % of control"}, {"measurement": "T/C", "setting": "dose: 32.0 mg/kg/injection, schedule: Q07DX003 (ip), vehicle: saline with Tween-80", "result": "30 % of control"}, {"measurement": "T/C", "setting": "dose: 64.0 mg/kg/injection, schedule: Q07DX002 (ip), vehicle: saline with Tween-80", "result": "85 % of control and 102 % of control"}, {"measurement": "T/C", "setting": "dose: 128.0 mg/kg/injection, schedule: Q07DX002 (ip), vehicle: saline with Tween-80", "result": "115 % of control"}, {"measurement": "T/C", "setting": "dose: 128.0 mg/kg/injection, schedule: Q07DX003 (ip), vehicle: saline with Tween-80", "result": "107 % of control"}]}
{"molecule": "O=C(N/N=C\\c1cc(Br)cc(Br)c1O)N/N=C/c1cc(Br)cc(Br)c1O", "values": [{"measurement": "T/C", "setting": "[6]", "result": "119 % of control"}, {"measurement": "T/C", "setting": "[3]", "result": "90 % of control"}, {"measurement": "T/C", "setting": "[4]", "result": "102 % of control"}, {"measurement": "T/C", "setting": "[5]", "result": "92 % of control"}]}
{"molecule": "[N-]=[N+]=CC(=O)CCC(=O)C=[N+]=[N-]", "values": [{"measurement": "T/C", "setting": "dose: 50.0 mg/kg/injection, schedule: Q07DX003 (ip), vehicle: Klucel (hydroxypropylcellulose) (HPC)", "result": "39 % of control"}, {"measurement": "T/C", "setting": "dose: 100.0 mg/kg/injection, schedule: Q07DX003 (ip), vehicle: Klucel (hydroxypropylcellulose) (HPC)", "result": "45 % of control"}, {"measurement": "T/C", "setting": "dose: 200.0 mg/kg/injection, schedule: Q07DX003 (ip), vehicle: Klucel (hydroxypropylcellulose) (HPC)", "result": "50 % of control"}, {"measurement": "T/C", "setting": "dose: 400.0 mg/kg/injection, schedule: Q07DX003 (ip), vehicle: Klucel (hydroxypropylcellulose) (HPC)", "result": "19 % of control"}]}
{"molecule": "Cc1c2cc(Cl)c3ccccc3c2c[n+]2ccccc12", "values": [{"measurement": "T/C", "setting": "[6]", "result": "94 % of control and 102 % of control"}, {"measurement": "T/C", "setting": "[7]", "result": "116 % of control"}, {"measurement": "T/C", "setting": "[2]", "result": "108 % of control and 111 % of control"}, {"measurement": "T/C", "setting": "[3]", "result": "88 % of control and 98 % of control"}, {"measurement": "T/C", "setting": "[4]", "result": "99 % of control"}, {"measurement": "T/C", "setting": "[5]", "result": "120 % of control"}]}
{"molecule": "CN=S(=O)(OCCCCCOS(=O)(=NC)c1ccccc1)c1ccccc1", "note": "(stereo unspecified)", "values": [{"measurement": "T/C", "setting": "[6]", "result": "58 % of control"}, {"measurement": "T/C", "setting": "[7]", "result": "74 % of control"}, {"measurement": "T/C", "setting": "[2]", "result": "69 % of control"}, {"measurement": "T/C", "setting": "[4]", "result": "59 % of control"}]}
{"molecule": "Cc1oc2c(C)c3oc(=O)cc(C)c3cc2c1CCl", "values": [{"measurement": "T/C", "setting": "[6]", "result": "77 % of control and 89 % of control"}, {"measurement": "T/C", "setting": "[2]", "result": "74 % of control and 77 % of control"}, {"measurement": "T/C", "setting": "[4]", "result": "53 % of control"}, {"measurement": "T/C", "setting": "[5]", "result": "94 % of control"}]}
